Experimental data from PMC8915624 (Antiviral Research, 2022).
Like-named read-outs stand apart in the source and are kept apart here.

Legend:
[1] = test system: SARS-CoV-2; type: cell-based
[2] = test system: Vero-E6 cells; assay: Cell viability assay; type: cell-based, African green monkey; settings: MTT, 72 h
[3] = test system: HCoV-OC43; type: cell-based; settings: for IC50: MRC-5/OC43, MOI 0.1, 72 hpi, viral genome copies by real-time RT-PCR; for relative viral genome copy number in cell lysates and supernatants: 20 μM
[4] = test system: MRC-5 cells; assay: Cell viability assay; type: cell-based, Human; settings: for CC50: MRC-5 cells, MTT, 72 h
[5] = test system: HCoV-OC43; type: cell-based; settings: Vero-E6/OC43; MOI 0.1, 72 hpi, real-time RT-PCR
[6] = test system: SARS-CoV-2; type: cell-based; settings: Vero-E6/SARS-CoV-2; MOI 0.1, 72 hpi, real-time RT-PCR
[7] = test system: SARS-CoV-2 NP protein; type: cell-based
[8] = test system: HCoV-OC43 NP; type: cell-based; settings: MRC-5, MOI 1; 20 μM
[9] = test system: HCoV-OC43; type: cell-based; settings: MRC-5, 72 hpi; 20 μM

Row | Compound | reduction in SARS-CoV-2 yield (plaque assay) [1] [log] | CC50 [2] [mM] | intra- and extra-cellular viral genome copy numbers ([3]; MRC-5, MOI 0.1, Cl-A 100 μM, BB-Cl 2.5 μM) | IC50 [3] [µM] | CC50 [4] [µM] | IC50 [5] [µM] | IC50 [6] [µM] | reduction of SARS-CoV-2 NP protein expression [7] [%] | OC43 NP protein expression levels (Western blot) [8] | inhibition of HCoV-OC43 replication rate (maximum within the range of concentrations tested) ([3]; MRC-5, MOI 0.1, 72 hpi) [%] | relative viral genome copy number in cell lysates and supernatants ([3]; MRC-5, MOI 0.1) | reduction of the viral titer (plaque assay) [9] | viral replication (viral genome production) ([3]; MRC-5, 20 μM) | cell viability ([4]; MRC-5, 20 μM)
1 | NC(=O)[C@H](CCCN=C(N)CCl)NC(=O)c1ccccc1 [Cl-amidine] | 1 | > 1 | drastically reduced | 34.8 | 949 | 44.1 | 95.2 | ~50 | – | – | – | – | – | –
2 | AFM30a | – | – | – | > 20 | 321 | – | – | – | slight decrease | ≤ 40 | much less pronounced reduction | barely detectable | – | –
3 | GSK199 | – | – | – | 0.6 | 133 | – | – | – | dramatic downregulation | – | drastically reduced | ~2 log | complete blockade of viral replication | viable
